Source: ChEMBL document CHEMBL1156106 (J Med Chem, 2009)

Key:
Rattus norvegicus [1] = assay: Effect on behavioural activity in rat assessed as cocaine-induced lever response at 5 mg/kg, po pretreated with cocaine for 180 mins by drug-discrimination studies; format: functional
Mus musculus [2] = assay: Antidepressant activity in ip dosed mouse assessed as duration of locomotor activity; format: functional
Mus musculus [3] = assay: Antidepressant activity in ip dosed mouse assessed as time to reach peak stimulation of locomotor activity; format: functional
Rattus norvegicus [4] = assay: Effect on behavioural activity in rat assessed as cocaine-induced lever response at 10 mg/kg, po pretreated with cocaine for 45 mins by drug-discrimination studies; format: functional
Rattus norvegicus [5] = assay: Effect on behavioural activity in rat assessed as cocaine-induced lever response at 25 mg/kg, po pretreated with cocaine for 45 mins by drug-discrimination studies; format: functional
Rattus norvegicus [6] = assay: Effect on behavioural activity in rat assessed as cocaine-induced lever response at 2.5 mg/kg, po pretreated with cocaine for 90 mins by drug-discrimination studies; format: functional
Rattus norvegicus [7] = assay: Effect on behavioural activity in rat assessed as cocaine-induced lever response at 10 mg/kg, po pretreated with cocaine for 90 mins by drug-discrimination studies; format: functional
Rattus norvegicus [8] = assay: Effect on behavioural activity in rat assessed as cocaine-induced lever response at 5 mg/kg, po pretreated with cocaine for 90 mins by drug-discrimination studies; format: functional
Rattus norvegicus [9] = assay: Effect on behavioural activity in rat assessed as cocaine-induced lever response at 25 mg/kg, ip pretreated with cocaine for 30 mins by drug-discrimination studies; format: functional; details: route intraperitoneal
Rattus norvegicus [10] = assay: Effect on behavioural activity in rat assessed as cocaine-induced lever response at 5 mg/kg, po pretreated with cocaine for 360 mins by drug-discrimination studies; format: functional
Rattus norvegicus [11] = assay: Effect on behavioural activity in rat assessed as cocaine-induced lever response at 2.5 mg/kg, ip pretreated with cocaine for 30 mins by drug-discrimination studies; format: functional; details: route intraperitoneal
Mus musculus [12] = assay: Antidepressant activity in ip dosed mouse assessed as stimulation of locomotor activity relative to cocaine; format: functional
Rattus norvegicus [13] = assay: Effect on behavioural activity in rat assessed as cocaine-induced lever response at 25 mg/kg, po pretreated with cocaine for 180 mins by drug-discrimination studies; format: functional
Rattus norvegicus [14] = assay: Effect on behavioural activity in rat assessed as cocaine-induced lever response at 10 mg/kg, ip pretreated with cocaine for 30 mins by drug-discrimination studies; format: functional; details: route intraperitoneal
Rattus norvegicus [15] = assay: Effect on behavioural activity in rat assessed as cocaine-induced lever response at 2.5 mg/kg, po pretreated with cocaine for 180 mins by drug-discrimination studies; format: functional
Rattus norvegicus [16] = assay: Effect on behavioural activity in rat assessed as cocaine-induced lever response at 5 mg/kg, ip pretreated with cocaine for 30 mins by drug-discrimination studies; format: functional; details: route intraperitoneal
Rattus norvegicus [17] = assay: Effect on behavioural activity in rat assessed as cocaine-induced lever response at 5 mg/kg, po pretreated with cocaine for 45 mins by drug-discrimination studies; format: functional
Rattus norvegicus [18] = assay: Effect on behavioural activity in rat assessed as cocaine-induced lever response at 2.5 mg/kg, po pretreated with cocaine for 45 mins by drug-discrimination studies; format: functional
Rattus norvegicus [19] = assay: Effect on behavioural activity in rat assessed as cocaine-induced lever response at 25 mg/kg, po pretreated with cocaine for 90 mins by drug-discrimination studies; format: functional
Rattus norvegicus [20] = assay: Effect on behavioural activity in rat assessed as cocaine-induced lever response at 10 mg/kg, po pretreated with cocaine for 180 mins by drug-discrimination studies; format: functional
Rattus norvegicus [21] = assay: Effect on behavioural activity in rat assessed as cocaine-induced lever response at 10 mg/kg, po pretreated with cocaine for 360 mins by drug-discrimination studies; format: functional
Rattus norvegicus [22] = assay: Effect on behavioural activity in rat assessed as cocaine-induced lever response at 25 mg/kg, po pretreated with cocaine for 360 mins by drug-discrimination studies; format: functional
Rattus norvegicus [23] = assay: Effect on behavioural activity in po dosed rat assessed as cocaine-induced lever response pretreated with cocaine by drug-discrimination studies; format: functional
Rattus norvegicus [24] = assay: Effect on behavioural activity in rat assessed as cocaine-induced lever response at 1 mg/kg, ip pretreated with cocaine for 30 mins by drug-discrimination studies; format: functional; details: route intraperitoneal
Rattus norvegicus [25] = assay: Effect on behavioural activity in rat assessed as cocaine-induced lever response at 2.5 mg/kg, po pretreated with cocaine for 360 mins by drug-discrimination studies; format: functional
Mus musculus [26] = assay: Antidepressant activity in ip dosed mouse assessed as stimulation of locomotor activity; format: functional
Rattus norvegicus [27] = assay: Effect on behavioural activity in ip dosed rat assessed as cocaine-induced lever response pretreated with cocaine by drug-discrimination studies; format: functional
Rattus norvegicus [28] = assay: Effect on behavioural activity in rat assessed as cocaine-induced lever response at 50 mg/kg, po pretreated with cocaine for 90 mins by drug-discrimination studies; format: functional
Rattus norvegicus [29] = assay: Effect on behavioural activity in rat assessed as cocaine-induced lever response at 50 mg/kg, po pretreated with cocaine for 360 mins by drug-discrimination studies; format: functional
Rattus norvegicus [30] = assay: Effect on behavioural activity in rat assessed as cocaine-induced lever response at 50 mg/kg, po pretreated with cocaine for 45 mins by drug-discrimination studies; format: functional
Rattus norvegicus [31] = assay: Effect on behavioural activity in rat assessed as cocaine-induced lever response at 50 mg/kg, po pretreated with cocaine for 180 mins by drug-discrimination studies; format: functional
[32] = molecular target: T1, Sodium-dependent serotonin transporter (Homo sapiens, UniProt P31645); assay: biochemical; format: cell-based, HEK293
T1 sequence (P31645 whole entry): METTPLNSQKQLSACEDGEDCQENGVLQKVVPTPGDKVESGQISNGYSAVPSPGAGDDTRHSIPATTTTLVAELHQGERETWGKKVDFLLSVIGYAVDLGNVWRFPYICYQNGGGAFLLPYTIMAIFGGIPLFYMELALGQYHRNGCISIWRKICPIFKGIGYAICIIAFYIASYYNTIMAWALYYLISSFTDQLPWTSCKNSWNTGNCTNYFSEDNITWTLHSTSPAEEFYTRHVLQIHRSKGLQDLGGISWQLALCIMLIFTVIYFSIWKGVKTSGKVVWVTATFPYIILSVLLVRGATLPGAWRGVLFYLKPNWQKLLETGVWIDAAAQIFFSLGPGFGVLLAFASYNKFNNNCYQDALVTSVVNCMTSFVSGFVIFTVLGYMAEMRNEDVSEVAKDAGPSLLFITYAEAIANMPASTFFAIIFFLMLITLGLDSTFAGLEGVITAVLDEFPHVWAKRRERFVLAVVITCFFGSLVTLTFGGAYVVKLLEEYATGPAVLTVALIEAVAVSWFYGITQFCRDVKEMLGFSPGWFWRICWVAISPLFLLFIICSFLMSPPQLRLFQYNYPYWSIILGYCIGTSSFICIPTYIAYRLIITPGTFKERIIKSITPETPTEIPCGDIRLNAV

Rattus norvegicus [33] = assay: Effect on behavioural activity in rat assessed as cocaine-induced lever response at 25 mg/kg, ip pretreated with cocaine for 15 mins by drug-discrimination studies; format: functional; details: route intraperitoneal
Rattus norvegicus [34] = assay: Effect on behavioural activity in rat assessed as cocaine-induced lever response at 10 mg/kg, ip pretreated with cocaine for 15 mins by drug-discrimination studies; format: functional; details: route intraperitoneal
Rattus norvegicus [35] = assay: Effect on behavioural activity in rat assessed as cocaine-induced lever response at 2.5 mg/kg, ip pretreated with cocaine for 15 mins by drug-discrimination studies; format: functional; details: route intraperitoneal
Rattus norvegicus [36] = assay: Effect on behavioural activity in rat assessed as cocaine-induced lever response at 5 mg/kg, ip pretreated with cocaine for 15 mins by drug-discrimination studies; format: functional; details: route intraperitoneal
Rattus norvegicus [37] = assay: Effect on behavioural activity in rat assessed as cocaine-induced lever response at 100 mg/kg, po pretreated with cocaine for 360 mins by drug-discrimination studies; format: functional
[38] = molecular target: Sodium-dependent noradrenaline transporter (Homo sapiens, UniProt P23975); assay: Displacement of [125I]RTI55 from cloned human NET expressed in HEK293 cells; format: cell-based
Sodium-dependent noradrenaline transporter, sequence (P23975 whole entry): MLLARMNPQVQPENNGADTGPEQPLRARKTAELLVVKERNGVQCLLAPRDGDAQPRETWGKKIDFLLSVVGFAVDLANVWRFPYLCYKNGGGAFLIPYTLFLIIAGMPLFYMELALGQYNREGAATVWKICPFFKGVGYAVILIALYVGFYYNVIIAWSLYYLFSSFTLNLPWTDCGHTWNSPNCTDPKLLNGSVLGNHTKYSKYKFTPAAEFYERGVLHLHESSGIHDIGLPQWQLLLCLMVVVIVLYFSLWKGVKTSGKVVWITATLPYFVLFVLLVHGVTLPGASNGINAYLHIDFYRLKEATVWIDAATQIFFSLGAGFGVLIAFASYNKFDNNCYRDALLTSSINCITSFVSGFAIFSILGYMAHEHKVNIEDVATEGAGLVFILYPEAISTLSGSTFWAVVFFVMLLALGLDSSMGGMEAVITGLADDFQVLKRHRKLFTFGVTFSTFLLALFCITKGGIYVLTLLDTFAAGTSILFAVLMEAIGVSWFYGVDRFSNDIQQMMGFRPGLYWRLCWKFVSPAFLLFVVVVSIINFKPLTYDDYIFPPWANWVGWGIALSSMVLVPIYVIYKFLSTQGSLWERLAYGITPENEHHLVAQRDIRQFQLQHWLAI

Rattus norvegicus [39] = assay: Effect on behavioural activity in rat assessed as cocaine-induced lever response at 100 mg/kg, po pretreated with cocaine for 45 mins by drug-discrimination studies; format: functional
Rattus norvegicus [40] = assay: Effect on behavioural activity in rat assessed as cocaine-induced lever response at 100 mg/kg, po pretreated with cocaine for 180 mins by drug-discrimination studies; format: functional
Rattus norvegicus [41] = assay: Effect on behavioural activity in rat assessed as cocaine-induced lever response at 100 mg/kg, po pretreated with cocaine for 90 mins by drug-discrimination studies; format: functional
Rattus norvegicus [42] = assay: Effect on behavioural activity in rat assessed as cocaine-induced lever response at 50 mg/kg, ip pretreated with cocaine for 15 mins by drug-discrimination studies; format: functional; details: route intraperitoneal
[43] = molecular target: Sodium-dependent dopamine transporter (Homo sapiens, UniProt Q01959); assay: Displacement of [125I]RTI55 from cloned human DAT expressed in HEK293 cells; format: cell-based
Sodium-dependent dopamine transporter, sequence (Q01959 whole entry): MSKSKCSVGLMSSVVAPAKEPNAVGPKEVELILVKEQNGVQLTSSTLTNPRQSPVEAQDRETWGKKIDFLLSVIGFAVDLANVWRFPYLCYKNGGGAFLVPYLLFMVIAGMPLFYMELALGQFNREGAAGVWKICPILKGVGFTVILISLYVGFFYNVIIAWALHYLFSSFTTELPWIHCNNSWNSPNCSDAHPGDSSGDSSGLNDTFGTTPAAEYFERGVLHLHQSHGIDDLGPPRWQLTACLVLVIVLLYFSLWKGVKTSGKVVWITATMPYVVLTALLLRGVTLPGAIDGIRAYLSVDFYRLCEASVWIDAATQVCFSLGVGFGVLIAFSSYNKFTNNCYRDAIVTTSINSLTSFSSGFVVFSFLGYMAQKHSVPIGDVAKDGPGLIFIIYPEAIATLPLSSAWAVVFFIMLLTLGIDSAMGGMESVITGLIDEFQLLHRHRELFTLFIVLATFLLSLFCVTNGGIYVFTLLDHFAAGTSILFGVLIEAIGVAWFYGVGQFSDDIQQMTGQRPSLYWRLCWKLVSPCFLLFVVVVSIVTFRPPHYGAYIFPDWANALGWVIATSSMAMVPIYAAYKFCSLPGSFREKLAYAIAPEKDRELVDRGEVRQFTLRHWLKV

[44] = molecular target: T1, Sodium-dependent serotonin transporter; assay: Inhibition of [3H]serotonin reuptake at human SERT expressed in HEK293 cells; format: cell-based

SMILES | Activity (Rattus norvegicus [1]) [%] | Time (Mus musculus [2]) [min] | Time to peak locomotor stimulation (Mus musculus [3]) [min] | Activity (Rattus norvegicus [4]) [%] | Activity (Rattus norvegicus [5]) [%] | Activity (Rattus norvegicus [7]) [%] | Activity (Rattus norvegicus [8]) [%] | Activity (Rattus norvegicus [10]) [%] | Activity (Mus musculus [12]) [%] | Activity (Rattus norvegicus [13]) [%] | Activity (Rattus norvegicus [17]) [%] | Activity (Rattus norvegicus [19]) [%] | Activity (Rattus norvegicus [20]) [%] | Activity (Rattus norvegicus [22]) [%] | ED50 (Rattus norvegicus [23]) [mg/kg] | ED50 (Mus musculus [26]) [mg/kg] | ED50 (Rattus norvegicus [27]) [mg/kg] | Activity (Rattus norvegicus [29]) [%] | Activity (Rattus norvegicus [30]) [%] | Ki [32] [µM] | also measured
CCCC(NC(C)(C)C)C(=O)c1ccc(Cl)c(Cl)c1 (configuration not stated) | 0 | 470 | 0 | 33 | 58 | 0 | 13 | 0 | 93 | 17 | 0 | 84 | 5 | 0 | 22.8 | 38 | 3.9 |  |  |  | Activity (Rattus norvegicus [6]): 0%; Activity (Rattus norvegicus [9]): 100%; Activity (Rattus norvegicus [11]): 41.8%; Activity (Rattus norvegicus [14]): 33.3%; Activity (Rattus norvegicus [15]): 0%; Activity (Rattus norvegicus [16]): 33.3%; Activity (Rattus norvegicus [18]): 17%; Activity (Rattus norvegicus [21]): 0%; Activity (Rattus norvegicus [24]): 0%; Activity (Rattus norvegicus [25]): 0%
CCC(NC(C)(C)C)C(=O)c1ccc(Cl)c(Cl)c1 (configuration not stated) | 0 | 60 | 0 | 34 | 50 | 0 |  | 0 | 69 | 2 | 17 | 33 | 0 | 33 | 15.2 | 38 | 6.3 | 16 | 83 |  | Activity (Rattus norvegicus [6]): 17%; Activity (Rattus norvegicus [9]): 100%; Activity (Rattus norvegicus [11]): 33.3%; Activity (Rattus norvegicus [15]): 50%; Activity (Rattus norvegicus [28]): 67%; Activity (Rattus norvegicus [16]): 16.7%; Activity (Rattus norvegicus [18]): 33%; Activity (Rattus norvegicus [31]): 50%; Activity (Rattus norvegicus [21]): 2%; Activity (Rattus norvegicus [24]): 0%; Activity (Rattus norvegicus [25]): 17%
CC(NC1CCCC1)C(=O)c1cccc(Cl)c1 (configuration not stated) | 0 | 330 | 0 | 60 | 67 | 33 | 0 | 0 | 107 |  | 50 | 67 | 0 | 34 | 6.6 | 12.3 | 10.9 | 16 | 100 | > 10 | Activity (Rattus norvegicus [9]): 83.4%; Activity (Rattus norvegicus [11]): 23.9%; Activity (Rattus norvegicus [14]): 66.2%; Activity (Rattus norvegicus [16]): 0%; Activity (Rattus norvegicus [18]): 17%; Activity (Rattus norvegicus [31]): 33%; Activity (Rattus norvegicus [24]): 0.9%
CC(NC(C)(C)C)C(=O)c1ccccc1 (configuration not stated) | 33 | 120 | 0 | 0 | 51 | 0 | 0 | 0 | 95 | 20 | 0 | 33 | 3 | 34 | 25.2 | 11.2 | 1 | 4 | 83 | > 10 | Activity (Rattus norvegicus [6]): 1%; Activity (Rattus norvegicus [33]): 83.4%; Activity (Rattus norvegicus [15]): 0%; Activity (Rattus norvegicus [28]): 33%; Activity (Rattus norvegicus [18]): 6%; Activity (Rattus norvegicus [34]): 83.3%; Activity (Rattus norvegicus [31]): 50%; Activity (Rattus norvegicus [21]): 0%; Activity (Rattus norvegicus [25]): 0%; Activity (Rattus norvegicus [35]): 16%; Activity (Rattus norvegicus [36]): 32.8%
CC(NC(C)(C)C)C(=O)c1cccc(F)c1 (configuration not stated) | 0 | 150 | 0 | 17 | 49 | 0 | 0 | 0 | 80 | 0 | 17 | 16 | 33 | 0 | 25.3 | 17.5 | 11.6 | 0 | 67 | > 10 | Activity (Rattus norvegicus [37]): 50%; Ki [38]: > 10 µM; Activity (Rattus norvegicus [39]): 95%; Activity (Rattus norvegicus [33]): 100%; Activity (Rattus norvegicus [28]): 33%; Activity (Rattus norvegicus [34]): 50.2%; Activity (Rattus norvegicus [40]): 83%; Activity (Rattus norvegicus [31]): 18%; Activity (Rattus norvegicus [41]): 75%; Activity (Rattus norvegicus [35]): 17.6%; Activity (Rattus norvegicus [36]): 0%
CCCCC(NC(C)(C)C)C(=O)c1cccc(Cl)c1 (configuration not stated) | 26 | 40 | 0 | 0 | 0 | 0 | 0 | 0 | 136 | 0 | 17 | 0 | 29 | 0 | 46.9 | 10.2 | 10 | 0 | 83 | > 10 | Activity (Rattus norvegicus [9]): 100%; Activity (Rattus norvegicus [11]): 0%; Activity (Rattus norvegicus [14]): 66.6%; Activity (Rattus norvegicus [28]): 17%; Activity (Rattus norvegicus [16]): 17.2%; Activity (Rattus norvegicus [31]): 17%; Activity (Rattus norvegicus [21]): 0%
CC(C(=O)c1cccc(Cl)c1)N(C)C(C)(C)C (configuration not stated) |  | 200 | 80 |  |  |  |  |  | 95 |  |  |  |  |  |  | 11.7 |  |  |  | > 10 | Activity (Rattus norvegicus [42]): 66.7%; Ki [38]: > 10 µM; Activity (Rattus norvegicus [33]): 75%; Activity (Rattus norvegicus [34]): 49.4%
CC(NC(C)(C)C)C(O)c1ccccc1 (racemic) |  | 390 | 150 |  |  |  |  |  | 41 |  |  |  |  |  |  |  |  |  |  | 4 | Ki [38]: > 10 µM; Ki [43]: > 10 µM; IC50 [44]: 1.24 µM
